Reference: patent publication US4505897A, “Cyclic pentapeptides displaying somatostatin antagonism and method of treatment of mammals therewith” (The Administrators of the Tulane Educational Fund, priority 1983, dated 1985)
Non-standard residues stand in square brackets, D forms with d. Residues, ends and D or L forms follow the SMILES beside them. *: point of attachment. Bn = c1ccc(C*)cc1

Legend:
[1] = tested on: plasma GH levels; assay: Peptide effects on NEMBUTAL-stimulated GH levels in anesthetized rats (sc bolus, jugular blood, RIA); assay type: in vivo, rat
Procedure: (§1) In this evaluation, the procedures described by W. A. Murphy et al., Endocrinology, 109:491-495 (1980), were employed.
In growth hormone (GH) experiments, male rats (Charles Rivers) were anesthetized with NEMBUTAL® (5 mg per 100 g/BW) which also served to maintain stimulated plasma GH levels. Exactly 30 minutes after the rats were anesthetized, 0.5 ml of saline or the test peptide in saline was administered as a sc bolus. A 1 ml blood sample was drawn from the jugular vein 15 minutes after the injection. For examining blocking effects of the analog on somatostatin, the cyclic peptide was given five minutes prior to somatostatin. GH levels were determined using NIADDKD rat GH RIA components.

[2] = tested on: somatostatin; assay: Somatostatin antagonist activity (blocking of exogenous somatostatin effects); assay type: in vivo, rats; settings: result in words
[3] = tested on: insulin release; assay: Basal hepatic portal insulin levels in fasted rats; assay type: in vivo, rat; settings: after treatment, result in words
Source text: as §1

[4] = tested on: glucagon release; assay: Basal hepatic portal glucagon levels in fasted rats; assay type: in vivo, rat; settings: after treatment, result in words
Source text: as §1

Row | Structure (SMILES) | GH (ng/ml) ([1]; first experiment, dose 2 μg/100 g body weight sc, saline 389 ± 60) | GH ([1]; first experiment, dose 10 μg/100 g body weight sc, saline 389 ± 60) [ng/mL] | GH ([1]; second experiment, dose 0.3 μg/100 g body weight sc, saline 648 ± 177) [ng/mL] | GH ([1]; second experiment, dose 0.3 μg/100 g body weight sc, saline 648 ± 177, listed as cyclo(Pro-Phe-D-Trp-Lys-Thr)) [ng/mL] | GH ([1]; second experiment, dose 0.6 μg/100 g body weight sc, saline 648 ± 177) [ng/mL] | GH ([1]; second experiment, dose 1.2 μg/100 g body weight sc, saline 648 ± 177) [ng/mL] | somatostatin antagonist activity [2] | plasma growth hormone levels ([1]; NEMBUTAL-anesthetized and stimulated rats, after injection, result in words) | GH ([1]; third experiment, dose 0.2 μg/100 g body weight sc, saline 497 ± 80) [ng/mL] | GH ([1]; third experiment, dose 0.2 μg/100 g body weight sc, saline 497 ± 80, listed as cyclo[Pro-Phe-D-Trp-Lys-Thr(Bzl)]) [ng/mL] | GH ([1]; third experiment, dose 0.6 μg/100 g body weight sc, saline 497 ± 80) [ng/mL] | basal hepatic portal insulin levels [3] | basal hepatic portal glucagon levels [4] | GH ([1]; first experiment, dose 0.4 μg/100 g body weight sc, blood 15 min after injection, saline 389 ± 60) [ng/mL] | GH ([1]; third experiment, dose 0.5 μg/100 g body weight sc, saline 497 ± 80) [ng/mL]
1 | C[C@@H](O)[C@@H]1NC(=O)[C@H](CCCCN)NC(=O)[C@@H](Cc2c[nH]c3ccccc23)NC(=O)[C@H](Cc2ccccc2)NC(=O)[C@@H]2CCCN2C1=O [Cyclo(Pro--Phe--D-Trp--Lys--Thr), cyclo(L-prolyl-L-phenylalanyl-D-tryptophyl-L-lysyl-L-threonyl)] (cyclo(F[dW]KTP)) | 730 + 110 ng/ml | 459 ± 100 | 1265 ± 318 | 1265 ± 318 | 1072 ± 187 | 728 ± 143 | has somatostatin antagonist activity | – | – | – | – | – | – | – | –
2 | C[C@@H](OCc1ccccc1)[C@@H]1NC(=O)[C@H](CCCCN)NC(=O)[C@@H](Cc2c[nH]c3ccccc23)NC(=O)[C@H](Cc2ccccc2)NC(=O)[C@@H]2CCCN2C1=O [Cyclo[Pro--Phe--D-Trp--Lys--Thr(Bzl)], cyclo(L-prolyl-L-phenylalanyl-D-tryptophyl-L-lysyl-O-benzyl-L-threonyl)] (cyclo(F[dW]KT(Bn)P)) | – | – | – | – | – | – | very effective somatostatin antagonist | increased | 1724 ± 393 | 1724 ± 383 | 812 ± 163 | significantly increased | significantly increased | – | –
3 | C[C@H](N)C(=O)NCC(=O)N[C@H]1CSSC[C@@H](C(=O)O)NC(=O)[C@H](CO)NC(=O)[C@H]([C@@H](C)O)NC(=O)[C@H](Cc2ccccc2)NC(=O)[C@H]([C@@H](C)O)NC(=O)[C@H](CCCCN)NC(=O)[C@H](Cc2c[nH]c3ccccc23)NC(=O)[C@H](Cc2ccccc2)NC(=O)[C@H](Cc2ccccc2)NC(=O)[C@H](CC(N)=O)NC(=O)[C@H](CCCCN)NC1=O [Somatostatin, somatostatin] | – | – | – | – | – | – | – | – | – | – | – | – | – | 152 ± 51 | 173 ± 46
